Results on 9 molecules are retold here after PubChem BioAssay AID344 (DTP/NCI, 2004).

In this test the test system is mice, LPC-1 plasma cell tumor ip, median survival T/C. The test can be described thus: NCI In Vivo Anticancer Drug Screen. Data for tumor model Lieberman Plasma Cell No. 1 (LPC-1) (intraperitoneal) in unknown mice. To be noted: endpoint: median survival time, higher = longer survival. The procedure:
The antitumor activity of compounds was measured in mice bearing transplantable tumors. Survival or tumor size were measured and the results are expressed as the measurement made in the treated group (T) divided by the measurement made in the vehicle treated control group (C). The tumor model used in this assay is Lieberman Plasma Cell No. 1 (LPC-1) (intraperitoneal) in unknown mice

[1] abbreviates: dose: 0.39 mg/kg/injection, schedule: Q01DX028 (sc), vehicle: other.
Where [2] appears, read: dose: 0.65 mg/kg/injection, schedule: Q01DX028 (sc), vehicle: other.
The mark [3] stands for this setting: dose: 1.08 mg/kg/injection, schedule: Q01DX028 (sc), vehicle: other.
Setting [4] is: dose: 1.8 mg/kg/injection, schedule: Q01DX028 (sc), vehicle: other.
The mark [5] stands for this setting: dose: 65.0 mg/kg/injection, schedule: Q01DX028 (sc), vehicle: carboxymethylcellulose (CMC).
Where [6] appears, read: dose: 108.0 mg/kg/injection, schedule: Q01DX028 (sc), vehicle: carboxymethylcellulose (CMC).
Where [7] appears, read: dose: 180.0 mg/kg/injection, schedule: Q01DX028 (sc), vehicle: carboxymethylcellulose (CMC).
Setting [8] is: dose: 3.0 mg/kg/injection, schedule: Q01DX028 (sc), vehicle: other.

SMILES strings stand for the structures. Inconclusive results and toxic doses are left out.

On to `CC(=O)O[C@]1(C(C)=O)CC[C@H]2[C@@H]3C[C@H](C)C4=CC(=O)C=C[C@]4(C)[C@@]3(F)[C@@H](O)C[C@@]21C`, for which the T/C runs as follows: (dose: 25.0 mg/kg/injection, schedule: Q01DX028 (sc), vehicle: steriod suspending solution) 100 % of control; (dose: 50.0 mg/kg/injection, schedule: Q01DX028 (sc), vehicle: steriod suspending solution) 97 % of control; (dose: 75.0 mg/kg/injection, schedule: Q01DX028 (sc), vehicle: steriod suspending solution) 91 % of control; (dose: 100.0 mg/kg/injection, schedule: Q01DX028 (sc), vehicle: steriod suspending solution) 97 % of control.

For `COC1=C(N)C(=O)c2nc(-c3nc(C(=O)O)c(C)c(-c4ccc(OC)c(OC)c4O)c3N)ccc2C1=O`, the T/C runs as follows: (dose: 0.14 mg/kg/injection, schedule: Q01DX028 (sc), vehicle: other) 100 % of control; (dose: 0.23 mg/kg/injection, schedule: Q01DX028 (sc), vehicle: other) 113 % of control; under setting [1], 115 % of control; under setting [2], 115 % of control; under setting [3], 94 % of control; under setting [4], 100 % of control.

Regarding `O=C(O)CCCc1ccc(N(CCCl)CCCl)cc1`, the T/C was 93 % of control (dose: 1.0 mg/kg/injection, schedule: Q01DX007 (sc), vehicle: saline); 109 % of control (dose: 2.0 mg/kg/injection, schedule: Q01DX007 (sc), vehicle: saline); 95 % of control (dose: 3.0 mg/kg/injection, schedule: Q01DX028 (sc), vehicle: methylcellulose (MC)); 118 % of control (dose: 4.0 mg/kg/injection, schedule: Q01DX007 (sc), vehicle: saline); 97 % of control (dose: 5.0 mg/kg/injection, schedule: Q01DX028 (sc), vehicle: methylcellulose (MC)); 100 % of control (dose: 8.4 mg/kg/injection, schedule: Q01DX028 (sc), vehicle: methylcellulose (MC)). Moreover, the T/C (dose: 14.0 mg/kg/injection, schedule: Q01DX028 (sc), vehicle: methylcellulose (MC)) was 113 % of control and the T/C (dose: 16.0 mg/kg/injection, schedule: Q01DX007 (sc), vehicle: saline) is 112 % of control.

Regarding `CS(=O)(=O)OCCN(CCOS(C)(=O)=O)c1ccccc1`, the T/C by setting is: (dose: 3.12 mg/kg/injection, schedule: Q01DX028 (sc), vehicle: carboxymethylcellulose (CMC)) 113 % of control; (dose: 6.25 mg/kg/injection, schedule: Q01DX028 (sc), vehicle: carboxymethylcellulose (CMC)) 161 % of control; (dose: 12.5 mg/kg/injection, schedule: Q01DX028 (sc), vehicle: carboxymethylcellulose (CMC)) 155 % of control; (dose: 15.0 mg/kg/injection, schedule: Q01DX028 (sc), vehicle: carboxymethylcellulose (CMC)) 184 % of control; (dose: 22.0 mg/kg/injection, schedule: Q01DX028 (sc), vehicle: carboxymethylcellulose (CMC)) 194 % of control; (dose: 25.0 mg/kg/injection, schedule: Q01DX028 (sc), vehicle: carboxymethylcellulose (CMC)) 105 % of control. Moreover, where the note is “dose: 33.0 mg/kg/injection, schedule: Q01DX028 (sc), vehicle: carboxymethylcellulose (CMC)”, the T/C was 110 % of control.

With `C/C(=N/N=C(N)N)c1ccc(NC(=O)Nc2ccc(/C(C)=N/N=C(N)N)cc2)cc1`, the T/C was 97 % of control (dose: 53.0 mg/kg/injection, schedule: Q01DX028 (sc), vehicle: carboxymethylcellulose (CMC)); 92 % of control (dose: 88.0 mg/kg/injection, schedule: Q01DX028 (sc), vehicle: carboxymethylcellulose (CMC)); 94 % of control (dose: 147.0 mg/kg/injection, schedule: Q01DX028 (sc), vehicle: carboxymethylcellulose (CMC)); 97 % of control (dose: 245.0 mg/kg/injection, schedule: Q01DX028 (sc), vehicle: carboxymethylcellulose (CMC)).

With `CN(C)c1ccc(/C=C/c2ccnc3ccccc23)cc1`, the T/C is, setting by setting: (dose: 2.0 mg/kg/injection, schedule: Q01DX028 (sc), vehicle: carboxymethylcellulose (CMC)) 95 % of control; (dose: 4.0 mg/kg/injection, schedule: Q01DX028 (sc), vehicle: carboxymethylcellulose (CMC)) 100 % of control; (dose: 8.0 mg/kg/injection, schedule: Q01DX028 (sc), vehicle: carboxymethylcellulose (CMC)) 95 % of control; (dose: 16.0 mg/kg/injection, schedule: Q01DX028 (sc), vehicle: carboxymethylcellulose (CMC)) 92 % of control; (dose: 23.0 mg/kg/injection, schedule: Q01DX028 (sc), vehicle: carboxymethylcellulose (CMC)) 105 % of control; (dose: 32.0 mg/kg/injection, schedule: Q01DX028 (sc), vehicle: carboxymethylcellulose (CMC)) 100 % of control. The T/C reads like this: (dose: 39.0 mg/kg/injection, schedule: Q01DX028 (sc), vehicle: carboxymethylcellulose (CMC)) 97 % of control; under setting [5], 100 % of control; under setting [6], 95 % of control; under setting [7], 95 % of control.

As for `COC(=O)c1nc(-c2ccc3c(n2)C(=O)C(N)=C(OC)C3=O)c(N)c(-c2ccc(OC)c(OC)c2O)c1C`, the T/C runs as follows: under setting [1], 100 % of control; under setting [2], 100 % of control; under setting [3], 100 % of control; under setting [4], 100 % of control; under setting [8], 100 % of control; (dose: 5.0 mg/kg/injection, schedule: Q01DX028 (sc), vehicle: other) 102 % of control.

Turning to `O=CN(O)CC(=O)O`, the T/C by setting is: under setting [5], 93 % of control; under setting [6], 90 % of control; under setting [7], 90 % of control; (dose: 300.0 mg/kg/injection, schedule: Q01DX028 (sc), vehicle: carboxymethylcellulose (CMC)) 93 % of control; (dose: 500.0 mg/kg/injection, schedule: Q01DX028 (sc), vehicle: carboxymethylcellulose (CMC)) 95 % of control; (dose: 833.0 mg/kg/injection, schedule: Q01DX028 (sc), vehicle: carboxymethylcellulose (CMC)) 95 % of control.

In the case of `NC(Cc1c[nH]c2ccc(N(CCCl)CCCl)cc12)C(=O)O` (stereo not drawn), the T/C was 235 % of control (dose: 0.23 mg/kg/injection, schedule: Q01DX028 (sc), vehicle: acid diluted with saline); 276 % of control (dose: 0.39 mg/kg/injection, schedule: Q01DX028 (sc), vehicle: acid diluted with saline); 285 % of control under setting [1]; 230 % of control (dose: 0.65 mg/kg/injection, schedule: Q01DX028 (sc), vehicle: acid diluted with saline); 164 % of control (dose: 0.65 mg/kg/injection, schedule: Q01DX028 (sc), vehicle: methylcellulose (MC)); 380 % of control under setting [2]. For the same molecule, the T/C was 119 % of control (dose: 1.08 mg/kg/injection, schedule: Q01DX028 (sc), vehicle: methylcellulose (MC)); 157 % of control under setting [3]; 107 % of control (dose: 1.8 mg/kg/injection, schedule: Q01DX028 (sc), vehicle: acid diluted with saline); 114 % of control under setting [4]; 97 % of control (dose: 3.0 mg/kg/injection, schedule: Q01DX028 (sc), vehicle: acid diluted with saline); 102 % of control under setting [8].
